Measured values from patent publication US20230133958A1, “COMPOUNDS USEFUL IN MODULATING EGFR AND PI3K” (Mekanistic Therapeutics LLC, priority 2021, published 2023).
pIC50: −log10 of the molar value.

Key:
P13Kδ = P13Kδ (Homo sapiens, UniProt O00329); assay: Z'-LYTE / Adapta biochemical kinase assay, PI3Kδ
Source text: (§1) The Z′-LYTE® biochemical assay employs a fluorescence-based, coupled-enzyme format and is based on the differential sensitivity of phosphorylated and non-phosphorylated peptides to proteolytic cleavage. The peptide substrate is labeled with two fluorophores—one at each end—that make up a FRET pair. In the primary reaction, the kinase transfers the gamma-phosphate of ATP to a single tyrosine, serine or threonine residue in a synthetic FRET-peptide. In the secondary reaction, a site-specific protease recognizes and cleaves non-phosphorylated FRET-peptides. Phosphorylation of FRET-peptides suppresses cleavage by the Development Reagent. […] A ratiometric method, which calculates the ratio (the Emission Ratio) of donor emission to acceptor emission after excitation of the donor fluorophore at 400 nm, is used to quantitate reaction progress.
(§2) A significant benefit of this ratiometric method for quantitating reaction progress is the elimination of well-to-well variations in FRET-peptide concentration and signal intensities. […]
(§3) Both cleaved and uncleaved FRET-peptides contribute to the fluorescence signals and therefore to the Emission Ratio. The extent of phosphorylation of the FRET-peptide can be calculated from the Emission Ratio. […]

HER4 = HER4 (Homo sapiens, UniProt Q15303); assay: Z'-LYTE / Adapta biochemical kinase assay, HER4
HER4, sequence (Q15303 26-1308): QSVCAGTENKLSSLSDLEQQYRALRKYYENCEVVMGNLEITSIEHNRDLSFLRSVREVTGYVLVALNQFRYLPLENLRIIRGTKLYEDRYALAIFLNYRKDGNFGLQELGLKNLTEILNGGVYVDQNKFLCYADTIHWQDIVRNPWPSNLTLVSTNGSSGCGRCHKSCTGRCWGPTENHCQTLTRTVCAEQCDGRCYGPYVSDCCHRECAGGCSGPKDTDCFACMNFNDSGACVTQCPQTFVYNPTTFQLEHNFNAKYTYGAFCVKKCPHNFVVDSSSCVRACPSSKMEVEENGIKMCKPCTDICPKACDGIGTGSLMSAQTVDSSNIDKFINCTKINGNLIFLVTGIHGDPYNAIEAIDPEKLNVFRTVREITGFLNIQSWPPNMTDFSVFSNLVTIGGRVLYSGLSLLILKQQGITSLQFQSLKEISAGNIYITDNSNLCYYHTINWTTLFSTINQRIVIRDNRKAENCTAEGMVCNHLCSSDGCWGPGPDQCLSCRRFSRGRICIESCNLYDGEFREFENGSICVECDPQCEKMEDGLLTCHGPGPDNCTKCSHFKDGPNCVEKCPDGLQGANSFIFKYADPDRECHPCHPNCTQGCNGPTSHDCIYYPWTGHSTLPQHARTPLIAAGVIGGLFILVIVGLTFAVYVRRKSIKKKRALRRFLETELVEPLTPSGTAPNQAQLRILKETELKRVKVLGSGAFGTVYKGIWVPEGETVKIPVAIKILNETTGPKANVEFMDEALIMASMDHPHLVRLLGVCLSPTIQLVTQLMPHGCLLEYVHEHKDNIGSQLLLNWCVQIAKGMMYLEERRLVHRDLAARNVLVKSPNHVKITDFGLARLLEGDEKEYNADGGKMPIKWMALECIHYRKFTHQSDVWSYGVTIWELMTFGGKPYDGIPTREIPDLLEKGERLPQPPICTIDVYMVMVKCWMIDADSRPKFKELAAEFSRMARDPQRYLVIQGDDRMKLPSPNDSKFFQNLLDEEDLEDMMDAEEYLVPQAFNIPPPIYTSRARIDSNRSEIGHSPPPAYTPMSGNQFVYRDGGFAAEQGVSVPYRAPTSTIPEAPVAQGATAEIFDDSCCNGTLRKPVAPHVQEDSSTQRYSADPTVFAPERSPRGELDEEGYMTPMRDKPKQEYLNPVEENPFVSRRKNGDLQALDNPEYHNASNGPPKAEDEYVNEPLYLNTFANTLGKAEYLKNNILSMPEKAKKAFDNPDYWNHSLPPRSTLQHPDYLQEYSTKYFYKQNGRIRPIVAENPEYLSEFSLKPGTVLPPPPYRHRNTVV
Source text: as §1, §2, §3

HER2 = HER2 (Homo sapiens, UniProt P04626); assay: Z'-LYTE / Adapta biochemical kinase assay, HER2
HER2, sequence (P04626 23-1255): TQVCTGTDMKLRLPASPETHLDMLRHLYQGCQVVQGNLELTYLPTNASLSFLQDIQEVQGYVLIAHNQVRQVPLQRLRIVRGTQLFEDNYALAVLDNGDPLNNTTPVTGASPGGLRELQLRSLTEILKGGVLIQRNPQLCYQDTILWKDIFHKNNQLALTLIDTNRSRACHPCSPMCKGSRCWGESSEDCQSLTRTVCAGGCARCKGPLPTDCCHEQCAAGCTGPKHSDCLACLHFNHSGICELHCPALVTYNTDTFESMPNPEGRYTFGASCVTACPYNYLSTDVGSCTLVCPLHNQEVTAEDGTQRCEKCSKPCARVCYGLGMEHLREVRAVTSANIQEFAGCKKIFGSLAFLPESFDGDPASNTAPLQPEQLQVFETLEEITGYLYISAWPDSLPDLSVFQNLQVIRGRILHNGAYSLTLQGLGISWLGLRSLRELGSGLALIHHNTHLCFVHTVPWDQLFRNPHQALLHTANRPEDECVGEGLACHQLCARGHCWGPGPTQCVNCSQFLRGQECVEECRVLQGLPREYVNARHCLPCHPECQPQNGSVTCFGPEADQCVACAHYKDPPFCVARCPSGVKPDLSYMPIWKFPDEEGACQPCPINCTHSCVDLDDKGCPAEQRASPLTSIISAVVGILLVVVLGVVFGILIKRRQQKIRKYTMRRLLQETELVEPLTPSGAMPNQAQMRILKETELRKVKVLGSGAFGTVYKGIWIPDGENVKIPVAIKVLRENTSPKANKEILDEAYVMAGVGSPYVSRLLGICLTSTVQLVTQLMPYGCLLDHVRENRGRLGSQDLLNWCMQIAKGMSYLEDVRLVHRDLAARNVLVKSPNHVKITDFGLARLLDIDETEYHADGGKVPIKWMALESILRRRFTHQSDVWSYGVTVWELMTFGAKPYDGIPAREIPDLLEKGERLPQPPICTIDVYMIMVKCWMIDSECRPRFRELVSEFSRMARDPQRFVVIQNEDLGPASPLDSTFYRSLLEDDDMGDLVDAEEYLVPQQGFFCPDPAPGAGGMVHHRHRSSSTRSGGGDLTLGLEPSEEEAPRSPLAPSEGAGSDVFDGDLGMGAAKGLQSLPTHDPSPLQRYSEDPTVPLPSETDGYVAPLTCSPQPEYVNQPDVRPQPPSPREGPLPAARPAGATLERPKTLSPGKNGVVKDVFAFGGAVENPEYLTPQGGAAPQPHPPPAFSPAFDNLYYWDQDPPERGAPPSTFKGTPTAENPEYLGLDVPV
Source text: as §1, §2, §3

P13Kδ, sequence (O00329 whole entry, stated change not applied): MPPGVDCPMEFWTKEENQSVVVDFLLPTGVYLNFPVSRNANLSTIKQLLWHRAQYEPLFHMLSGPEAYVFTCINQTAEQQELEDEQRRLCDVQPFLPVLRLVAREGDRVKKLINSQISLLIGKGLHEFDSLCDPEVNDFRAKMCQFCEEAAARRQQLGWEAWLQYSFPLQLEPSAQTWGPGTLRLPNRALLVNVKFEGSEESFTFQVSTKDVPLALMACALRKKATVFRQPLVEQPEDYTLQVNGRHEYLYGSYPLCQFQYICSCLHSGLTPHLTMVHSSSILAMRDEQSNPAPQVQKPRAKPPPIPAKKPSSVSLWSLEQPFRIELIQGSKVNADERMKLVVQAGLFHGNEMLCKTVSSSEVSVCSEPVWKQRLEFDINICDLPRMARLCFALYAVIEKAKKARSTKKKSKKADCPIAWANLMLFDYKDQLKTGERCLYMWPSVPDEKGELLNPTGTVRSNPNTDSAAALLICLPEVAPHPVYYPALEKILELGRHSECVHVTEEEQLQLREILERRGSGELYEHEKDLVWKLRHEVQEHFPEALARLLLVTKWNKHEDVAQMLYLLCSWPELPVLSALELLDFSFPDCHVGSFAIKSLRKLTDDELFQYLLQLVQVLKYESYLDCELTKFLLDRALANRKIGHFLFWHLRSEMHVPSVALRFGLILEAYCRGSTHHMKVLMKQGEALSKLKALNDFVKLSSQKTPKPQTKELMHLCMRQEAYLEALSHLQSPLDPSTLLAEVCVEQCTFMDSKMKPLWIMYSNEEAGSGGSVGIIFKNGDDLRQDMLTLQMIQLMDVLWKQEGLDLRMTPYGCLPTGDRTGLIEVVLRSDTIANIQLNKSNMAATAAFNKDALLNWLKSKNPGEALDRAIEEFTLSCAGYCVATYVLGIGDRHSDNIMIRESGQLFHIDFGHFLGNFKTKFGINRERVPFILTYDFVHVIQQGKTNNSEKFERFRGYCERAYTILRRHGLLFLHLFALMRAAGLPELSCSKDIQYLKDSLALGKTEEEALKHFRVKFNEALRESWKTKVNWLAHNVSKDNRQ
P13Kδ, sequence (P27986 2-724 partner limits assumed): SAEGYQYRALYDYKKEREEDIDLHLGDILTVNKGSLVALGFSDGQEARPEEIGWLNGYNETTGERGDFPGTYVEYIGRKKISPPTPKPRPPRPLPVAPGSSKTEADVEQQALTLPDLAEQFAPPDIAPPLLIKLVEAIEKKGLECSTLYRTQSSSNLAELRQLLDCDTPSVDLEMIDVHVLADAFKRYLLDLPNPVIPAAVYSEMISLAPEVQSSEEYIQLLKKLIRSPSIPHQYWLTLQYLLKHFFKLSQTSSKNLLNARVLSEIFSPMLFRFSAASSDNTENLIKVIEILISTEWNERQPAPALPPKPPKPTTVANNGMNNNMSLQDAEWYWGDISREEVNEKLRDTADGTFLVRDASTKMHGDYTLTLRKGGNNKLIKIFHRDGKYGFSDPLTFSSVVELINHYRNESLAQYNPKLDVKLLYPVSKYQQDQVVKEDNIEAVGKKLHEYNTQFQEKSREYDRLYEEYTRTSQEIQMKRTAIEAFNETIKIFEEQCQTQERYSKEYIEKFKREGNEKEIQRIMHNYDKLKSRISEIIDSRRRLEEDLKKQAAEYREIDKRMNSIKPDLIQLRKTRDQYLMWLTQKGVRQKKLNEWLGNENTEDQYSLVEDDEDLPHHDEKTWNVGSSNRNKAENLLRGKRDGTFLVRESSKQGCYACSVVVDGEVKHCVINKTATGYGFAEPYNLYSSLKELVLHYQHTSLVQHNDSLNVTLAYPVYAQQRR

CS(=O)(=O)Nc1cc(-c2ccc3ncnc(Nc4cccc(Cl)c4F)c3c2)cnc1Cl [Compound 6, N-[2-chloro-5-[4-(3-chloro-2-fluoro-anilino)quinazolin-6-yl]-3-pyridyl] methanesulfonamide]
pIC50 (P13Kδ): ≥ 8.70
pIC50 (HER4): < 6.70
pIC50 (HER2): < 6.70
